What was measured:
[1] = system: Arthrospira platensis (CCMP1295); experiment: Toxicology assay over 72 hours (BS EN ISO 10253:2006), reduction in specific growth rate; assay type: cell-based
Method: Toxicology assays and EC50 calculations for copper were performed on Arthrospira platensis (CCMP1295). Assessments were performed under aseptic conditions in 2 stages through an initial range-finding assay (data not shown) using CuSO4 solutions to detect the region of the EC50, followed by a final toxicology assay over 72 hours following British Standard BS EN ISO 10253:2006 [15] with ECso determination where inhibition is measured as a reduction in specific growth rate, relative to control cultures grown under identical conditions. Visual analysis was also performed to assess the effects of metal toxicity on morphology. Statistical analysis was performed using GraphPad Prism 5 Non-linear transform log(agonist) vs. response—variable response function.
FIGS. 4A and 4B show the results of the toxicity assay using A. platensis. EC50 of Cu^2+ ions for A. platensis was calculated at 0.2976 (in the 95% CI range of 0.17-0.5208 mg/L with an R squared value of 0.8654).

[2] = system: A. platensis; experiment: Micro-evolution exposure (60 days) with fluctuation analysis; assay type: cell-based, Arthrospira platensis
Source text: The result from the fluctuation analysis after the selected period can explain the presence of resistant cells in two ways. Each result is interpreted as the independent consequence of two different phenomena of adaptation. In the first case, if resistant cells arose during the exposure to the selective agent (that is, by physiological adaptation), the variance in the number of cells per culture would be low because every cell is likely to have the same chance of developing resistance (set 1A; FIG. 3). Consequently, inter-culture (tube-to-tube) variation would be consistent with the Poisson model (that is, the variance of these replicate samples would be equal to the mean). By contrast, if resistant cells arose before the exposure to the selective agent (that is, genetic adaptation by rare spontaneous mutation occurring during the time in which the cultures grew from N0 to Nt), a high variation in the number of resistant cells per culture would be found (set 1B; FIG. 3). The tube-to-tube variation would not be consistent with the Poisson model (that is, variance>mean). Fluctuation analysis can likewise show the possibility of no adaptation if no resistant cells are observed after the incubation period in any of the experimental cultures. Since set 2 is the control of the experiment, variation is due only to random sampling and variation from tube to tube would be consistent with the Poisson model. […] If a similar variance: mean ratio between set 1 and set 2 is found, it confirms that resistant cells arose during the exposure to the selecting agent (that is, a post-selective mechanism).
FIG. 2 illustrates a typical outline of the micro-evolution process. The experiment was performed based on the method from Gonzalez et al., (2012). Following FIG. 2, the culture was cloned through the isolation of a single alga or cyanobacterium, to avoid the inclusion of previous spontaneous mutations, followed by growth. Cloning was performed through microdilution in microwell plates, where the culture was diluted to the culture density of 1 microbe (micro-organism, MO) per 200 μl, providing a single cell in each well (although if microalgae/cyanobacteria can grow on solid medium, isolation on medium agar can also be performed). Propagation of the cloned culture was performed from 200 μl in increasing volume flasks with foam stoppers in a constant temperature room 18° C.+/−1° C., average light intensity 2800 lux with 8:16 dark:light cycle.
10e2 MOs were then subcultured into 10 ml 40 vials (set 1), and cultures propagated further in vials and propagation flask (for set 2) (FIG. 3). Before exposure, controls ‘set 2’ were prepared through subculturing from flask into 20 vials. During the exposure stage, CuSO4 solution was added to the 60 vials of each concentration set to make-up the final concentrations of 0.3, 0.6, 1, 2 and 4 mg/Cu^2+ ions. Vials were stored under propagation conditions described above for a period of 60 days, with daily agitation, ensuring resistant cells could generate enough progeny to be detected. After the incubation period, fluctuation analysis was performed to identify those cultures which resistance arose through microevolution.

O=S(=O)([O-])[O-].[Cu+2] [Cu^2+ ions, CuSO4]
morphological changes (microscope) ([1]; 1 mg/L Cu2+, after 24 hour): fragmentation of the trichomes | EC50 ([1]; 72 hours, CuSO4 solutions, 95% CI 0.17-0.5208 mg/L, R squared 0.8654): 0.2976 µg/mL | Outcome ([2]; 0.3 mg/L Cu^2+ ion concentration): RSM | Outcome ([2]; 0.6 mg/L Cu^2+ ion concentration): RSM | Outcome ([2]; 1 mg/L Cu^2+ ion concentration): No adaptation | Outcome ([2]; 2 mg/L Cu^2+ ion concentration): No adaptation | Outcome ([2]; 4 mg/L Cu^2+ ion concentration): No adaptation

— patent publication US20150353982A1, “MICRO-EVOLUTION OF MICROBES” (priority 2012, published 2015)
